# Measurements as given in US20240140957A1, “BRIDGED COMPOUNDS AS KRAS G12D INHIBITOR AND DEGRADER AND THE USE THEREOF” (BeiGene Switzerland GmbH, priority 2021, published 2024).
# Like-named read-outs stand apart in the source and are kept apart here.
# Tests used:
# KRAS G12D:SOS1 = KRAS G12D:SOS1 (Homo sapiens, UniProt P01116, G12D); assay: KRAS G12D:SOS1 GDP TR-FRET assay; format: binding; details: GST-KRAS G12D 37.5 nM, GDP 10 μM, His-SOS1 18 nM
# WT KRAS:SOS1 = WT KRAS:SOS1 (Homo sapiens, UniProt P01116); assay: KRAS WT:SOS1 GDP TR-FRET assay; format: binding; details: GST-WT KRAS 37.5 nM, GDP 10 μM, His-SOS1 18 nM
# Chain of WT KRAS:SOS1 (P01116 1-188 isoform P01116-2): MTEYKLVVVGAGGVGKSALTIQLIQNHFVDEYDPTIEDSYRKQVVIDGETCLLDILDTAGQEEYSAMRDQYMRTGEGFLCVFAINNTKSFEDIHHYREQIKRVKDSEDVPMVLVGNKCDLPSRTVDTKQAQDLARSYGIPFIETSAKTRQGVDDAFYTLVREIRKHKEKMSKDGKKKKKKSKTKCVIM
# GDP-loaded KRAS G12D = GDP-loaded KRAS G12D (Homo sapiens, UniProt P01116, G12D); assay: KRAS G12D Probe Displacement Assay; format: binding
# Chain of GDP-loaded KRAS G12D (P01116 1-188 isoform P01116-2 G12D): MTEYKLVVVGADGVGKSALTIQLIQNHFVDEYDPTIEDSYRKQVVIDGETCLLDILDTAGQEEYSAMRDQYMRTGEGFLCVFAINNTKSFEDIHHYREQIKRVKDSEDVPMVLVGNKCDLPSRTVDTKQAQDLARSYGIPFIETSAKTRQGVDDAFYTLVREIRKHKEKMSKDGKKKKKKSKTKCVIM
# GDP-loaded WT KRAS = GDP-loaded WT KRAS (Homo sapiens, UniProt P01116); assay: KRAS WT Probe Displacement Assay; format: binding
# Chain of GDP-loaded WT KRAS (P01116 1-188 isoform P01116-2): as the sequence (P01116 1-188 isoform P01116-2) above
# [1] = system: pERK1/2 (THR202/TYR204) in AsPC-1 cells; assay: pERK Assay (HTRF) in AsPC-1 cells; format: cell-based; details: Homo sapiens, ASPC1, 2 h compound treatment
# [2] = KRAS G12D 0.5 nM, biotinylated probe 2 4 nM, read-out: KRAS G12D Probe Displacement Assay IC50
# [3] = WT KRAS 3 nM, biotinylated probe 1 60 nM, read-out: KRAS WT Probe Displacement Assay IC50
# Chain of KRAS G12D:SOS1 (P01116 1-188 isoform P01116-2 G12D): as the sequence (P01116 1-188 isoform P01116-2 G12D) above
SMILES,IC50 (KRAS G12D:SOS1),IC50 (WT KRAS:SOS1),IC50 (GDP-loaded KRAS G12D),IC50 (GDP-loaded WT KRAS),IC50 [1],IC50 (GDP-loaded KRAS G12D; [2]),IC50 (GDP-loaded WT KRAS; [3])
"Cc1cc(N)nc(-c2c(Cl)cc3c(N4CC5CCC(C4)N5)nc(OC[C@@]45CCCN4C[C@H](F)C5)nc3c2F)c1C(F)(F)F [Example E49, 6-(4-(3,8-diazabicyclo[3.2.1]octan-3-yl)-6-chloro-8-fluoro-2-(((2R,7aS)-2-fluorotetrahydro-1H-pyrrolizin-7a(5H)-yl)methoxy)quinazolin-7-yl)-4-methyl-5-(trifluoromethyl)pyridin-2-amine]",4.8 nM,35 nM,3.1 nM,49 nM,84 nM,–,–
"Cc1cc(N)nc(-c2c(Cl)cc3c(N4CC5CCC(C4)N5)nc(OC[C@@H]4C[C@@H](F)CN4C)nc3c2F)c1C(F)(F)F [Example E37, 6-(4-(3,8-diazabicyclo[3.2.1]octan-3-yl)-6-chloro-8-fluoro-2-(((2S,4R)-4-fluoro-1-methylpyrrolidin-2-yl)methoxy)quinazolin-7-yl)-4-methyl-5-(trifluoromethyl)pyridin-2-amine]",13 nM,692 nM,–,–,807 nM,16 nM,700 nM
"C[C@@H](CN1CCC(F)C1)Oc1nc(N2C3CCC2CNC3)c2cc(Cl)c(-c3ccc(F)c4sc(N)nc34)c(F)c2n1 (stereo partly drawn) [Example E43, 4-(4-(3,8-diazabicyclo[3.2.1]octan-8-yl)-6-chloro-8-fluoro-2-(((2S)-1-(3-fluoropyrrolidin-1-yl)propan-2-yl)oxy)quinazolin-7-yl)-7-fluorobenzo[d]thiazol-2-amine]",17 nM,488 nM,–,–,2550 nM,8.4 nM,320 nM
"Cc1cc(N)nc(-c2c(Cl)cc3c(N4CC5CCC(C4)N5)nc(O[C@@H](C)CN4CCCCC4)nc3c2F)c1C(F)(F)F [Example E35, 6-(4-(3,8-diazabicyclo[3.2.1]octan-3-yl)-6-chloro-8-fluoro-2-(((S)-1-(piperidin-1-yl)propan-2-yl)oxy)quinazolin-7-yl)-4-methyl-5-(trifluoromethyl)pyridin-2-amine]",22 nM,3300 nM,–,–,4350 nM,130 nM,7300 nM
"CN(C)C(=O)CCOc1nc(N2CC3CCC(C2)N3)c2cc(Cl)c(-c3ccc(F)c4sc(N)nc34)c(F)c2n1 [Example E40, 3-((7-(2-amino-7-fluorobenzo[d]thiazol-4-yl)-4-(3,8-diazabicyclo[3.2.1]octan-3-yl)-6-chloro-8-fluoroquinazolin-2-yl)oxy)-N,N-dimethylpropanamide]",24 nM,2210 nM,–,–,> 10000 nM,41 nM,1400 nM
"CN1C[C@H](F)C[C@H]1COc1nc(N2CC3CCC(C2)N3)c2cc(Cl)c(-c3ccc(F)c4sc(N)nc34)c(Cl)c2n1 [Example E53, 4-(4-(3,8-diazabicyclo[3.2.1]octan-3-yl)-6,8-dichloro-2-(((2S,4R)-4-fluoro-1-methylpyrrolidin-2-yl)methoxy)quinazolin-7-yl)-7-fluorobenzo[d]thiazol-2-amine]",5.1 nM,132 nM,–,–,380 nM,1.2 nM,47 nM
"CN1C[C@H](F)C[C@H]1COc1nc(N2CC3CCC(C2)N3)c2cc(C(F)(F)F)c(-c3ccc(F)c4sc(N)nc34)c(F)c2n1 [Example E51, 4-(4-(3,8-diazabicyclo[3.2.1]octan-3-yl)-8-fluoro-2-(((2S,4R)-4-fluoro-1-methylpyrrolidin-2-yl)methoxy)-6-(trifluoromethyl)quinazolin-7-yl)-7-fluorobenzo[d]thiazol-2-amine]",6.5 nM,61 nM,–,–,202 nM,1.1 nM,33 nM
"Cc1cc(N)nc(-c2c(Cl)cc3c(N4CC5CCC(C4)N5)nc(OCC45CCCN4CC(F)C5)nc3c2F)c1C(F)(F)F (stereo not shown) [Example E50, 6-(4-(3,8-diazabicyclo[3.2.1]octan-3-yl)-6-chloro-8-fluoro-2-((2-fluorotetrahydro-1H-pyrrolizin-7a(5H)-yl)methoxy)quinazolin-7-yl)-4-methyl-5-(trifluoromethyl)pyridin-2-amine]",7.6 nM,140 nM,4 nM,160 nM,312 nM,–,–
"CN1C[C@H](F)C[C@H]1COc1nc(N2C3CCC2CNC3)c2cc(Cl)c(-c3ccc(F)c4sc(N)nc34)c(F)c2n1 [Example E36, 4-(4-(3,8-diazabicyclo[3.2.1]octan-8-yl)-6-chloro-8-fluoro-2-(((2S,4R)-4-fluoro-1-methylpyrrolidin-2-yl)methoxy)quinazolin-7-yl)-7-fluorobenzo[d]thiazol-2-amine]",10 nM,242 nM,–,–,715 nM,3.7 nM,120 nM
CC1CCCC(C)N1C[C@H](C)Oc1nc(N2CC3CCC(C2)N3)c2cc(Cl)c(-c3ccc(F)c4sc(N)nc34)c(F)c2n1 (stereo partly shown) [Example E38],12 nM,804 nM,–,–,1310 nM,32 nM,1400 nM
"C[C@@H](CN1CCOCC1)Oc1nc(N2C3CCC2CNC3)c2cc(Cl)c(-c3ccc(F)c4sc(N)nc34)c(F)c2n1 [Example E41, 4-(4-(3,8-diazabicyclo[3.2.1]octan-8-yl)-6-chloro-8-fluoro-2-(((S)-1-morpholinopropan-2-yl)oxy)quinazolin-7-yl)-7-fluorobenzo[d]thiazol-2-amine]",11 nM,438 nM,–,–,1480 nM,11 nM,230 nM
"Nc1nc2c(-c3c(Cl)cc4c(N5CC6CCC(C5)N6)nc(OC[C@@]56CCCN5C[C@H](F)C6)nc4c3F)c(F)cc(F)c2s1 [Example E75, 4-(4-(3,8-diazabicyclo[3.2.1]octan-3-yl)-6-chloro-8-fluoro-2-(((2R,7aS)-2-fluorotetrahydro-H-pyrrolizin-7a(5H)-yl)methoxy)quinazolin-7-yl)-5,7-difluorobenzo[d]thiazol-2-amine]",–,–,–,–,40 nM,0.23 nM,1.8 nM
"C=Cc1cc2c(N3CC4CCC(C3)N4)nc(OC[C@@H]3C[C@@H](F)CN3C)nc2c(F)c1-c1ccc(F)c2sc(N)nc12 [Example E66, 4-(4-((3,8-diazabicyclo[3.2.1]octan-3-yl)-8-fluoro-2-(((2S,4R)-4-fluoro-1-methylpyrrolidin-)-yl)methoxy)-6-vinylquinazolin-7-yl)-7-fluorobenzo[d]thiazol-2-amine]",–,–,–,–,480 nM,2.2 nM,72 nM
"Nc1nc2c(-c3c(C(F)(F)F)cc4c(N5CC6CC(C5)N6)nc(OC[C@@]56CCCN5C[C@H](F)C6)nc4c3F)ccc(F)c2s1 [Example E74, 4-(4-(3,6-diazabicyclo[3.1.1]heptan-3-yl)-8-fluoro-2-(((2R,7aS)-2-fluorotetrahydro-1H-pyrrolizin-7a(5H)-yl)methoxy)-6-(trifluoromethyl)quinazolin-7-yl)-7-fluorobenzo[d]thiazol-2-amine]",–,–,–,–,349 nM,0.42 nM,4.8 nM
"Nc1nc2c(-c3c(C(F)(F)F)cc4c(N5CC6CCC(C5)N6)nc(OC[C@@]56CCCN5C[C@H](F)C6)nc4c3F)ccc(Cl)c2s1 [Example E83, 4-(4-(3,8-diazabicyclo[3.2.1]octan-3-yl)-8-fluoro-2-(((2R,7aS)-2-fluorotetrahydro-1H-pyrrolizin-7a(5H)-yl)methoxy)-6-(trifluoromethyl)quinazolin-7-yl)-7-chlorobenzo[d]thiazol-2-amine]",–,–,–,–,61 nM,0.13 nM,3.8 nM
"CN(C)CC1(COc2nc(N3CC4CCC(C3)N4)c3cc(Cl)c(-c4ccc(F)c5sc(N)nc45)c(F)c3n2)CC1 [Example E70, 4-(4-(3,8-diazabicyclo[3.2.1]octan-3-yl)-6-chloro-2-((1-((dimethylamino)methyl)cyclopropyl)methoxy)-8-fluoroquinazolin-7-yl)-7-fluorobenzo[d]thiazol-2-amine]",–,–,–,–,927 nM,0.35 nM,32 nM
"C[C@@H](CN1CCC(F)CC1(C)C)Oc1nc(N2CC3CCC(C2)N3)c2cc(C(F)(F)F)c(-c3ccc(F)c4sc(N)nc34)c(F)c2n1 (stereo partly drawn) [Example E72, 4-(4-(3,8-diazabicyclo[3.2.1]octan-3-yl)-8-fluoro-2-(((2S)-1-(4-fluoro-2,2-dimethylpiperidin-1-yl)propan-2-yl)oxy)-6-(trifluoromethyl)quinazolin-7-yl)-7-fluorobenzo[d]thiazol-2-amine]",–,–,–,–,1080 nM,3.9 nM,120 nM
"Nc1nc2c(-c3c(Cl)cc4c(N5CC6CCC(C5)N6)nc(OCC56CCCN5CC(F)C6)nc4c3F)ccc(F)c2s1 (stereo not shown) [Example E54, 4-(4-(3,8-diazabicyclo[3.2.1]octan-3-yl)-6-chloro-8-fluoro-2-((2-fluorotetrahydro-1H-pyrrolizin-7a(5H)-yl)methoxy)quinazolin-7-yl)-7-fluorobenzo[d]thiazol-2-amine]",–,–,–,–,205 nM,0.35 nM,7.5 nM
"Cc1ccc(-c2c(C(F)(F)F)cc3c(N4CC5CCC(C4)N5)nc(OC[C@@]45CCCN4C[C@H](F)C5)nc3c2F)c2nc(N)sc12 [Example E73, 4-(4-(3,8-diazabicyclo[3.2.1]octan-3-yl)-8-fluoro-2-(((2R,7aS)-2-fluorotetrahydro-1H-pyrrolizin-7a(5H)-yl)methoxy)-6-(trifluoromethyl)quinazolin-7-yl)-7-methylbenzo[d]thiazol-2-amine]",–,–,–,–,68 nM,0.57 nM,15.5 nM
